# Positions of bridges follow the written chain, without caps; N, C: chain ends. Non-standard residues stand in square brackets, D forms with d. Residues, ends and D or L forms follow the SMILES beside them. *: point of attachment. hPhe(3-Cl-4-CF3) = N[C@@H](CCc1ccc(C(F)(F)F)c(Cl)c1)C(=O)O; NMePhe(4-CF3) = CN[C@@H](Cc1ccc(C(F)(F)F)cc1)C(=O)O; NMePhe(4-Cl) = CN[C@@H](Cc1ccc(Cl)cc1)C(=O)O; NMeAla(cPent) = CN[C@@H](CC1CCCC1)C(=O)O; NMeGly(cPent) = CN[C@H](C(=O)O)C1CCCC1; Phe(3-I) = N[C@@H](Cc1cccc(I)c1)C(=O)O; NMeCha = CN[C@@H](CC1CCCCC1)C(=O)O; NMeAllylGly = C=CC[C@H](NC)C(=O)O; NMeChg = CN[C@H](C(=O)O)C1CCCCC1; dNMeF = CN[C@H](Cc1ccccc1)C(=O)O; NMeD = CN[C@@H](CC(=O)O)C(=O)O; AllylGly = C=CC[C@H](N)C(=O)O; NMeL = CN[C@@H](CC(C)C)C(=O)O; dNMeAbu = CC[C@@H](NC)C(=O)O; hLeu = CC(C)CC[C@H](N)C(=O)O; NMeV = CN[C@H](C(=O)O)C(C)C; dNMeS = CN[C@H](CO)C(=O)O; NMeA = CN[C@@H](C)C(=O)O; NMeAib = CNC(C)(C)C(=O)O; Nle = CCCC[C@H](N)C(=O)O; Piperidide = C1CCN(*)CC1; Pyrrolidide = C1CCN(*)C1; Ac5c = NC1(C(=O)O)CCCC1; Aze = O=C(O)[C@@H]1CCN1; Isopentyl = CC(C)CC*; Sar = CNCC(=O)O
# Molecular target: T1, Kras and SOS1 (biotin-tagged human Kras loaded with GDP, His-tagged human SOS1) (Homo sapiens, UniProt P01116, G12D)
# T1 construct: made in house; host or cells: E. coli (stated for Kras only)
# T1 sequence (P01116 1-188 isoform P01116-2 G12D): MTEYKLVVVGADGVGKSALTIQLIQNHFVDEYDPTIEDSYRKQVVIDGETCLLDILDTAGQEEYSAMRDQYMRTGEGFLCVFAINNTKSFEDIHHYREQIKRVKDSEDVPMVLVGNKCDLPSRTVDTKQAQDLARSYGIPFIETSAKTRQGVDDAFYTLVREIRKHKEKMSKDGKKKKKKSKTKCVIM
# Experiment: Protein-protein interaction inhibition between Kras and SOS1 (KrasGl2D-SOS PPI) using AlphaScreen
# Assay type: binding
# Conditions: AlphaScreen; biotin-tagged human Kras loaded with GDP, His-tagged human SOS1; read-out: KRAS G12D-SOS PPI IC50
# Procedure, shortened: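 Binding between SOS1 and Kras is detected as bead-proximity luminescence: illuminate Ni-conjugated donors (680 nm), collect 520-620 nm emission from streptavidin-conjugated acceptors; Kras carries biotin and GDP loaded after purification, SOS1 carries a His tag.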
row,Structure (SMILES),IC50 [nM]
1,C=CC[C@@H]1NC(=O)[C@H](Cc2cccc(I)c2)NC(=O)CN(C)C(=O)[C@H](Cc2ccc(Cl)cc2)N(C)C(=O)CN(C)C(=O)CN(C)C(=O)[C@H]([C@@H](C)CC)NC(=O)[C@H](CC(C)C)N(C)C(=O)C[C@@H](C(=O)N2CCCC2)N(C)C(=O)[C@H](CC(C)C)NC(=O)C(C)(C)N(C)C1=O [Compound 1431] ([NMeL]I[Sar][Sar][NMePhe(4-Cl)][Sar][Phe(3-I)][AllylGly][NMeAib]L[NMeD]-Pyrrolidide; lactam N-11),220
2,CCCC[C@@H]1NC(=O)[C@H](Cc2cccc(I)c2)NC(=O)CN(C)C(=O)[C@H](CC2CCCC2)N(C)C(=O)[C@@H]2CCN2C(=O)[C@H](C)N(C)C(=O)[C@H]([C@@H](C)CC)NC(=O)[C@H](CC(C)C)N(C)C(=O)C[C@@H](C(=O)N2CCCCC2)N(C)C(=O)[C@H](CC(C)C)NC(=O)C(C)(C)N(C)C1=O [Compound 1432] ([NMeL]I[NMeA][Aze][NMeAla(cPent)][Sar][Phe(3-I)][Nle][NMeAib]L[NMeD]-Piperidide; lactam N-11),260
3,CCCC[C@@H]1NC(=O)[C@H](Cc2cccc(I)c2)NC(=O)CN(C)C(=O)[C@H](Cc2ccc(C(F)(F)F)cc2)N(C)C(=O)CN(C)C(=O)CN(C)C(=O)[C@H]([C@@H](C)CC)NC(=O)[C@H](CC(C)C)N(C)C(=O)C[C@@H](C(=O)N2CCCCC2)N(C)C(=O)[C@H](CCC(C)C)NC(=O)C(C)(C)N(C)C1=O [Compound 1433] ([NMeL]I[Sar][Sar][NMePhe(4-CF3)][Sar][Phe(3-I)][Nle][NMeAib][hLeu][NMeD]-Piperidide; lactam N-11),29
4,CC[C@H](C)[C@@H]1NC(=O)[C@H](CC(C)C)N(C)C(=O)C[C@@H](C(=O)N2CCCCC2)N(C)C(=O)[C@H](C2CCCC2)N(C)C(=O)C2(CCCC2)NC(=O)[C@@H](Cc2ccccc2)N(C)C(=O)[C@H](CCc2ccc(C(F)(F)F)c(Cl)c2)NC(=O)CN(C)C(=O)[C@H](CC2CCCCC2)N(C)C(=O)[C@@H]2CCN2C(=O)[C@H](C)N(C)C1=O [Compound 1434] ([NMeL]I[NMeA][Aze][NMeCha][Sar][hPhe(3-Cl-4-CF3)][dNMeF][Ac5c][NMeGly(cPent)][NMeD]-Piperidide; lactam N-11),150
5,CC[C@H](C)[C@@H]1NC(=O)[C@H](CC(C)C)N(C)C(=O)C[C@@H](C(=O)N2CCCCC2)N(C)C(=O)[C@H](C(C)C)N(C)C(=O)C2(CCCC2)NC(=O)[C@@H](COCCC(C)C)N(C)C(=O)[C@H](CCc2ccc(C(F)(F)F)c(Cl)c2)NC(=O)CN(C)C(=O)[C@H](CC2CCCCC2)N(C)C(=O)[C@@H]2CCN2C(=O)[C@H](C)N(C)C1=O [Compound 1437] ([NMeL]I[NMeA][Aze][NMeCha][Sar][hPhe(3-Cl-4-CF3)][dNMeS](Isopentyl)[Ac5c][NMeV][NMeD]-Piperidide; lactam N-11),81
6,CC[C@@H]1C(=O)NC2(CCCC2)C(=O)N(C)[C@@H](C(C)C)C(=O)N(C)[C@H](C(=O)N2CCCCC2)CC(=O)N(C)[C@@H](CC(C)C)C(=O)N[C@@H]([C@@H](C)CC)C(=O)N(C)[C@@H](C)C(=O)N2CC[C@H]2C(=O)N(C)[C@@H](CC2CCCCC2)C(=O)N(C)CC(=O)N[C@@H](CCc2ccc(C(F)(F)F)c(Cl)c2)C(=O)N1C [Compound 1438] ([NMeL]I[NMeA][Aze][NMeCha][Sar][hPhe(3-Cl-4-CF3)][dNMeAbu][Ac5c][NMeV][NMeD]-Piperidide; lactam N-11),36
7,CC[C@H](C)[C@@H]1NC(=O)[C@H](CC(C)C)N(C)C(=O)C[C@@H](C(=O)N2CCCCC2)N(C)C(=O)[C@H](C2CCCC2)N(C)C(=O)C2(CCCC2)NC(=O)[C@@H](COCCC(C)C)N(C)C(=O)[C@H](CCc2ccc(C(F)(F)F)c(Cl)c2)NC(=O)CN(C)C(=O)[C@H](CC2CCCCC2)N(C)C(=O)CN(C)C(=O)CN(C)C1=O [Compound 1440] ([NMeL]I[Sar][Sar][NMeCha][Sar][hPhe(3-Cl-4-CF3)][dNMeS](Isopentyl)[Ac5c][NMeGly(cPent)][NMeD]-Piperidide; lactam N-11),16
8,CC[C@@H]1C(=O)NC2(CCCC2)C(=O)N(C)[C@@H](C2CCCC2)C(=O)N(C)[C@H](C(=O)N2CCCCC2)CC(=O)N(C)[C@@H](CC(C)C)C(=O)N[C@@H]([C@@H](C)CC)C(=O)N(C)[C@@H](C)C(=O)N2CC[C@H]2C(=O)N(C)[C@@H](CC2CCCCC2)C(=O)N(C)CC(=O)N[C@@H](CCc2ccc(C(F)(F)F)c(Cl)c2)C(=O)N1C [Compound 1441] ([NMeL]I[NMeA][Aze][NMeCha][Sar][hPhe(3-Cl-4-CF3)][dNMeAbu][Ac5c][NMeGly(cPent)][NMeD]-Piperidide; lactam N-11),6.4
9,CC[C@H](C)[C@@H]1NC(=O)[C@H](CC(C)C)N(C)C(=O)C[C@@H](C(=O)N2CCCCC2)N(C)C(=O)[C@H](C(C)C)N(C)C(=O)C2(CCCC2)NC(=O)[C@@H](Cc2ccccc2)N(C)C(=O)[C@H](CCc2ccc(C(F)(F)F)c(Cl)c2)NC(=O)CN(C)C(=O)[C@H](CC2CCCCC2)N(C)C(=O)[C@@H]2CCN2C(=O)[C@H](C)N(C)C1=O [Compound 1442] ([NMeL]I[NMeA][Aze][NMeCha][Sar][hPhe(3-Cl-4-CF3)][dNMeF][Ac5c][NMeV][NMeD]-Piperidide; lactam N-11),280
10,CC[C@H](C)[C@@H]1NC(=O)[C@H](CC(C)C)N(C)C(=O)C[C@@H](C(=O)N2CCCCC2)N(C)C(=O)[C@H](C2CCCC2)N(C)C(=O)C2(CCCC2)NC(=O)[C@@H](COCCC(C)C)N(C)C(=O)[C@H](CCc2ccc(C(F)(F)F)c(Cl)c2)NC(=O)CN(C)C(=O)[C@H](CC2CCCCC2)N(C)C(=O)[C@@H]2CCN2C(=O)[C@H](C)N(C)C1=O [Compound 1443] ([NMeL]I[NMeA][Aze][NMeCha][Sar][hPhe(3-Cl-4-CF3)][dNMeS](Isopentyl)[Ac5c][NMeGly(cPent)][NMeD]-Piperidide; lactam N-11),23
11,CC[C@H](C)[C@@H]1NC(=O)[C@H](CC(C)C)N(C)C(=O)C[C@@H](C(=O)N2CCCCC2)N(C)C(=O)[C@H](C(C)C)N(C)C(=O)C2(CCCC2)NC(=O)[C@@H](CO)N(C)C(=O)[C@H](CCc2ccc(C(F)(F)F)c(Cl)c2)NC(=O)CN(C)C(=O)[C@H](CC2CCCCC2)N(C)C(=O)[C@@H]2CCN2C(=O)[C@H](C)N(C)C1=O [Compound 1444] ([NMeL]I[NMeA][Aze][NMeCha][Sar][hPhe(3-Cl-4-CF3)][dNMeS][Ac5c][NMeV][NMeD]-Piperidide; lactam N-11),8.8
12,C=CC[C@H]1C(=O)NC2(CCCC2)C(=O)N(C)[C@@H](C(C)C)C(=O)N(C)[C@H](C(=O)N2CCCCC2)CC(=O)N(C)[C@@H](CC(C)C)C(=O)N[C@@H]([C@@H](C)CC)C(=O)N(C)[C@@H](C)C(=O)N2CC[C@H]2C(=O)N(C)[C@@H](CC2CCCCC2)C(=O)N(C)CC(=O)N[C@@H](CCc2ccc(C(F)(F)F)c(Cl)c2)C(=O)N1C [Compound 1447] ([NMeL]I[NMeA][Aze][NMeCha][Sar][hPhe(3-Cl-4-CF3)][NMeAllylGly][Ac5c][NMeV][NMeD]-Piperidide; lactam N-11),100
13,C=CC[C@H]1C(=O)NC2(CCCC2)C(=O)N(C)[C@@H](C2CCCCC2)C(=O)N(C)[C@H](C(=O)N2CCCCC2)CC(=O)N(C)[C@@H](CC(C)C)C(=O)N[C@@H]([C@@H](C)CC)C(=O)N(C)CC(=O)N(C)CC(=O)N(C)[C@@H](CC2CCCCC2)C(=O)N(C)CC(=O)N[C@@H](CCc2ccc(C(F)(F)F)c(Cl)c2)C(=O)N1C [Compound 1449] ([NMeL]I[Sar][Sar][NMeCha][Sar][hPhe(3-Cl-4-CF3)][NMeAllylGly][Ac5c][NMeChg][NMeD]-Piperidide; lactam N-11),14

# Reference: patent US12371454B2, “Cyclic peptide compound having Kras inhibitory action” (priority 2019, dated 2025)
